Laboratory results from patent US20240148821A1, “PHARMACEUTICAL USE OF CYCLIC PEPTIDE COMPOUND” (CHUGAI SEIYAKU KABUSHIKI KAISHA, priority 2021, published 2024).
Numbered stars: 1 amine (or outer) side, 2 acyl side, 3 side chain; on linkers, the order of the positions; unused ones are H or OH. Bridge positions count the residues as written; N and C are the ends. Square brackets hold non-standard residues; d marks the D form. Peptide text beside a SMILES is read from it. * marks the point of attachment. hPhe(3-Cl-4-CF3) = N[C@@H](CCc1ccc(C(F)(F)F)c(Cl)c1)C(=O)O; hPhe(3-F,4-CF3) = N[C@@H](CCc1ccc(C(F)(F)F)c(F)c1)C(=O)O; NEtPhe(4-CF3) = CCN[C@@H](Cc1ccc(C(F)(F)F)cc1)C(=O)O; NMePhe(4-CF3) = CN[C@@H](Cc1ccc(C(F)(F)F)cc1)C(=O)O; NMePhe(4-Me) = CN[C@@H](Cc1ccc(C)cc1)C(=O)O; NMedβ3hAla = C[C@H](CC(=O)[*:2])N(C)[*:1]; NMeAla(cPent) = CN[C@@H](CC1CCCC1)C(=O)O; NMeGly(cPent) = CN[C@H](C(=O)O)C1CCCC1; Pro(4,4-F2) = O=C(O)[C@@H]1CC(F)(F)CN1; NMeCha = CN[C@@H](CC1CCCCC1)C(=O)O; Hyp = O=C(O)[C@@H]1C[C@@H](O)CN1; NMeChg = CN[C@H](C(=O)O)C1CCCCC1; NMeI = CC[C@H](C)[C@H](NC)C(=O)O; NMeD = CN[C@@H](CC(=O)O)C(=O)O; NMeL = CN[C@@H](CC(C)C)C(=O)O; NMeV = CN[C@H](C(=O)O)C(C)C; d(β3hA) = C[C@@H](N)CC(=O)O; NMeS = CN[C@@H](CO)C(=O)O; NMeA = CN[C@@H](C)C(=O)O; Piperidide = C1CCN(*)CC1; Ac5c = NC1(C(=O)O)CCCC1; Aze = O=C(O)[C@@H]1CCN1; Ac4c = NC1(C(=O)O)CCC1; Isopentyl = CC(C)CC*; Sar = CNCC(=O)O

What was measured:
[1] = biological target: protein-protein interaction between Kras and SOS1 (biotin-tagged human Kras loaded with GDP, His-tagged human SOS1) (Homo sapiens (Human), UniProt P01116, G12D); assay: Protein-protein interaction inhibition between Kras and SOS1 (KrasG12D-SOS PPI) using AlphaScreen; format: biochemical; settings: AlphaScreen; biotin-tagged human Kras loaded with GDP, His-tagged human SOS1; read-out: KRAS G12D-SOS PPI IC50;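 also: kras produced in E. coli, Ni-coupled donor beads and streptavidin acceptor beads, excitation 680 nm with emission detected at 520–620 nm via singlet oxygen transfer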
[2] = tested on: Human pancreatic cancer cell line AsPC-1 (G12D mutation Kras); assay: AsPC-1 cell growth inhibition (AsPC-1 CGI); format: cell-based; settings: read-out: AsPC-1 cell growth inhibition, 50% growth inhibitory concentration (IC50 value); 96 hours, CellTiter-Glo, values classified in ranges
Experimental: Test compounds were serially dilated with dimethyl sulfoxide, and 200 nL was then dispensed to a U-bottom 96-well plate using Labcyte Echo. […] The cell suspension was dispensed to a. plate containing a test compound at 100 μL per well and incubated at 37° C. in a 5% carbon dioxide gas incubator. 96 hours later, 80 μL of CellTiter-Glo (Promega) was added to each well and fluorescence was measured.

SMILES	IC50 [1]	IC50 [2]
CCO[C@@H]1C[C@H]2C(=O)NC3(CCC3)C(=O)N(C)[C@@H](C3CCCC3)C(=O)N(C)[C@H](C)CC(=O)N(C)[C@@H](CC(C)C)C(=O)N[C@@H]([C@@H](C)CC)C(=O)N(C)[C@@H](C)C(=O)N3CC[C@H]3C(=O)N(CC)[C@@H](Cc3ccc(C(F)(F)F)cc3)C(=O)N(C)CC(=O)N[C@@H](CCc3ccc(C(F)(F)F)c(Cl)c3)C(=O)N2C1 [Compound 594] (cyclo([Ac4c][NMeGly(cPent)][NMedβ3hAla][NMeL]I[NMeA][Aze][NEtPhe(4-CF3)][Sar][hPhe(3-Cl-4-CF3)][Hyp](Et)))	0.54 nM	≤ 20 nM
CC[C@H](C)[C@@H]1NC(=O)[C@H](CC(C)C)N(C)C(=O)C[C@@H](C)NC(=O)[C@H](C2CCCC2)N(C)C(=O)[C@@H](C(C)C)NC(=O)[C@@H]2CCCN2C(=O)[C@H](CCc2ccc(C(F)(F)F)c(Cl)c2)NC(=O)CN(C)C(=O)[C@H](Cc2ccc(C)cc2)N(C)C(=O)[C@@H]2CCN2C(=O)[C@H](C)N(C)C1=O [Compound 598] (cyclo([Aze][NMePhe(4-Me)][Sar][hPhe(3-Cl-4-CF3)]P[dV][NMeGly(cPent)][d(β3hA)][NMeL]I[NMeA]))	300 nM	> 500 nM
CCO[C@@H]1C[C@H]2C(=O)NC3(CCCC3)C(=O)N(C)[C@@H](C3CCCC3)C(=O)N(C)[C@H](C)CC(=O)N(C)[C@@H](CC(C)C)C(=O)N[C@@H]([C@@H](C)CC)C(=O)N(C)[C@@H](C)C(=O)N3CC[C@H]3C(=O)N(C)[C@@H](Cc3ccc(C(F)(F)F)cc3)C(=O)N(C)CC(=O)N[C@@H](CCc3ccc(C(F)(F)F)c(Cl)c3)C(=O)N2C1 [Compound 640] (cyclo([Ac5c][NMeGly(cPent)][NMedβ3hAla][NMeL]I[NMeA][Aze][NMePhe(4-CF3)][Sar][hPhe(3-Cl-4-CF3)][Hyp](Et)))	0.86 nM	≤ 20 nM
CC[C@H](C)[C@@H]1NC(=O)[C@H](CC(C)C)N(C)C(=O)C[C@@H](C(=O)N2CCCCC2)N(C)C(=O)[C@H](C2CCCCC2)N(C)C(=O)C2(CCCC2)NC(=O)[C@H](CC2CCCC2)N(C)C(=O)[C@H](CCc2ccc(C(F)(F)F)c(Cl)c2)NC(=O)CN(C)C(=O)[C@H](CC2CCCCC2)N(C)C(=O)CN(C)C(=O)CN(C)C1=O [Compound 643] ([NMeL]I[Sar][Sar][NMeCha][Sar][hPhe(3-Cl-4-CF3)][NMeAla(cPent)][Ac5c][NMeChg][NMeD]-Piperidide; lactam N-11)	27 nM	> 500 nM
CC[C@H](C)[C@@H]1NC(=O)[C@H](CC(C)C)NC(=O)C[C@@H](C)NC(=O)[C@H](C2CCCC2)N(C)C(=O)C2(CCCC2)NC(=O)[C@@H]2CCCN2C(=O)[C@H](CCc2ccc(C(F)(F)F)c(Cl)c2)NC(=O)CN(C)C(=O)[C@H](Cc2ccc(C)cc2)N(C)C(=O)[C@@H]2CCN2C(=O)[C@H](C)N(C)C1=O [Compound 648] (cyclo([Ac5c][NMeGly(cPent)][d(β3hA)]LI[NMeA][Aze][NMePhe(4-Me)][Sar][hPhe(3-Cl-4-CF3)]P))	3.2 nM	> 500 nM
CC[C@H](C)[C@@H]1NC(=O)[C@H](COCCC(C)C)N(C)C(=O)C[C@@H](C(=O)N2CCCCC2)N(C)C(=O)[C@H](C(C)C)N(C)C(=O)C2(CCCC2)NC(=O)[C@@H]2CCCN2C(=O)[C@H](CCc2ccc(C(F)(F)F)c(Cl)c2)NC(=O)CN(C)C(=O)[C@H](CC2CCCCC2)N(C)C(=O)[C@@H]2CCN2C(=O)[C@H](C)N(C)C1=O [Compound 661] ([NMeS](Isopentyl)I[NMeA][Aze][NMeCha][Sar][hPhe(3-Cl-4-CF3)]P[Ac5c][NMeV][NMeD]-Piperidide; lactam N-11)	13 nM	> 500 nM
CC[C@H](C)[C@@H]1NC(=O)[C@H](CC(C)C)N(C)C(=O)C[C@@H](C)N(C)C(=O)[C@H]([C@@H](C)CC)N(C)C(=O)C2(CCCC2)NC(=O)[C@@H]2CC(F)(F)CN2C(=O)[C@H](CCc2ccc(C(F)(F)F)c(Cl)c2)NC(=O)CN(C)C(=O)[C@H](Cc2ccc(C(F)(F)F)cc2)N(C)C(=O)[C@@H]2CCN2C(=O)[C@H](C)N(C)C1=O [Compound 668] (cyclo([Ac5c][NMeI][NMedβ3hAla][NMeL]I[NMeA][Aze][NMePhe(4-CF3)][Sar][hPhe(3-Cl-4-CF3)][Pro(4,4-F2)]))	1.9 nM	≤ 20 nM
CC[C@H](C)[C@@H]1NC(=O)[C@H](CC(C)C)N(C)C(=O)C[C@@H](C(=O)N2CCCCC2)N(C)C(=O)[C@H]([C@@H](C)CC)N(C)C(=O)C2(CCCC2)NC(=O)[C@@H]2CCCN2C(=O)[C@H](CCc2ccc(C(F)(F)F)c(F)c2)NC(=O)CN(C)C(=O)[C@H](Cc2ccc(C)cc2)N(C)C(=O)[C@@H]2CCN2C(=O)[C@H](C)N(C)C1=O [Compound 678] ([NMeL]I[NMeA][Aze][NMePhe(4-Me)][Sar][hPhe(3-F,4-CF3)]P[Ac5c][NMeI][NMeD]-Piperidide; lactam N-11)	1.7 nM	≤ 20 nM
